A short description of data set [1]: Stability test of light fastness of diimmonium compound thin film. It counts as physicochemical. Conditions: for remaining ratio of diimmonium compound (%), 100-hour after / remaining ratio of diimmonium compound (%), 150-hour after: Weatherometer 0.36 W/m^2, 24° C., 30% RH; for remaining ratio of diimmonium compound (%), initial period: thin film on polycarbonate, before irradiation. Here is the method: 0.1 part of the Compound No. 3 was added to 10 part of tetrafluoropropanol to produce a coating solution. The obtained coating solution was applied to a polycarbonate substrate by spin coating to form a thin film of the diimmonium compound. The […] source output: 0.36 W/m^2; bath temperature: 24° C.; black panel temperature: 40° C.; humidity: 30% RH: by a Weatherometer (Ci4000, manufactured by Atlas Co.). After that, the remaining ratio of the diimmonium compound was measured by a spectrophotometer.
For comparison, a dye film was formed and evaluated in the same manner, except that the compound described in Patent Document No. 3; hexafluoroantimonate of tetrakis[p-di(n-butyl)aminophenyl]phenylenediimmonium (Comparative Example 8: Compound No. 153); was used in place of the Compound No. 3.

Data set [2] in a line: Stability test of moisture-and-heat resistance of near-IR absorption filter. It counts as physicochemical. Here is the method: (§1) 1.2 part of each compound obtained in each Example was dissolved in 18.8 part of MEK. 80 part of a resin solution obtained by dissolving 25 part of an acrylic resin (Dianal BR-80, manufactured by Mitsubishi Rayon Co., Ltd.) in 75 part of MEK was mixed with the obtained solution to obtain a solution for coating. The solution was applied to form a film with a thickness of 2 to 4 μm on a polyester film and dried at 80° C. to obtain a near-IR absorption filter of the invention.
The obtained near-IR absorption filter was subjected to a stability test of moisture-and-heat resistance for 14 days in a constant temperature and constant humidity apparatus under 60° C. and 95% RH conditions. The filter was subjected to color measurement by a spectrophotometer before and after the test to calculate L*, a*, and b* values. If the + value of b* value is high, it means that the hue is yellowish and if b* value is close to 0, it means that the yellowish degree is low and filter is desirable and therefore, the hue evaluation and stability evaluation were done based on the b* value and its change.

A short description of data set [3]: thermal decomposition point (weight decrease starting point) by TG-DTA. Type of data set: physicochemical. Conditions: measured by TG-DTA. Here is the method: the melting point: around 170° C.; and the thermal decomposition point (the weight decrease starting point): around 280° C. (measured by TG-DTA)
The nature of data set [4]: Comparative test of solubility measurement. The conditions noted are these: room temperature; for solubility in MEK: methyl ethyl ketone.
Method: The solubility was measured for the compounds obtained in the above-mentioned Examples at a room temperature in methyl ethyl ketone (MEK) and toluene.
Data set [5] is described as follows: Stability test of light fastness of cyanine dye film. Type of data set: physicochemical. Conditions: for remaining ratio of cyanine dye (%), initial period: OM-57 dye film with compound added, before irradiation; for remaining ratio of cyanine dye (%), 100-hour after / remaining ratio of cyanine dye (%), 150-hour after: Weatherometer 0.36 W/m^2, 24° C., 30% RH. Here is the method: 0.3 part of the cyanine dye (OM-57) was dissolved in 15 part of tetrafluoropropanol and 0.04 part of the Compound No. 3 was added to the obtained solution to produce a coating solution. The obtained coating solution was applied to a polycarbonate substrate by spin coating to form a dye film. The […] the conditions: light source output: 0.36 W/m^2; bath temperature: 24° C.; black panel temperature: 40° C.; humidity: 30% RH: by a Weatherometer (Ci4000, manufactured by Atlas Co.). After that, the remaining ratio of the cyanine dye was measured by a spectrophotometer.
For comparison, a dye film was formed and evaluated in the same manner, except that the compound described in Patent Document No. 3; hexafluoroantimonate of tetrakis[p-di(n-butyl)aminophenyl]phenylenediimmonium (Comparative Example 7: Compound No. 153); was used in place of the Compound No. 1.

A short description of data set [6]: maximum absorption wavelength (λmax) in dichloromethane. Type of data set: physicochemical. The source says: λmax: 1,102 nm (in dichloromethane);
Data set [7] in a line: Comparative test of molar absorption coefficient measurement. The conditions noted are these: in dichloromethane; in M-1·cm-1. It counts as physicochemical. From the text:
The compounds obtained in the above-mentioned Examples were subjected to the measurement of molar absorption coefficient (ε) in dichloromethane.

Data set [8] is described as follows: Stability test of heat resistance of near-IR absorption filter. Type of data set: physicochemical. Here is the method: as §1
[…] After that, the filters were subjected to color measurement by a spectrophotometer to calculate L*, a*, and b* values and their stability was evaluated based on the change in b* values. If the b* is low, that is, the absorption in visible ray region is low, the near-IR absorption filter is preferable.

The mark [9] stands for this setting: acrylic resin filter, before test.

The record followed here is patent US20050148786A1, “Diimmonium compound and use thereof” (Nippon Kayaku Kabushiki Kaisha, priority 2003, published 2005).

Regarding `N#CCCCN(CCCC#N)c1ccc([N+](=C2C=CC(=[N+](c3ccc(N(CCCC#N)CCCC#N)cc3)c3ccc(N(CCCC#N)CCCC#N)cc3)C=C2)c2ccc(N(CCCC#N)CCCC#N)cc2)cc1.O=S(=O)([N-]S(=O)(=O)C(F)(F)F)C(F)(F)F.O=S(=O)([N-]S(=O)(=O)C(F)(F)F)C(F)(F)F` [Compound No. 3], in data set [1], the “remaining ratio of diimmonium compound (%), 100-hour after” value is 88%; the “remaining ratio of diimmonium compound (%), 150-hour after” value is listed as 86%; the “remaining ratio of diimmonium compound (%), initial period” value is recorded as 100%. Moreover, the “b* value, difference” value in data set [2] (14-day after minus initial, 60° C. and 95% RH) was 2.5. In data set [2] (acrylic resin filter, 14 days at 60° C. and 95% RH), the “b* value, 14-day after” value was 6.1. Moreover, the “b* value, initial period” value in data set [2] (setting [9]) turned out to be 3.6. In addition, the “thermal decomposition point (the weight decrease starting point)” value in data set [3] is “around 282 °C”. In data set [4], the “solubility in MEK” value was found to be 2% and the solubility in toluene result was “insoluble”. In data set [5], the “remaining ratio of cyanine dye (%), initial period” value came to 100%; the “remaining ratio of cyanine dye (%), 100-hour after” value amounted to 47%; the “remaining ratio of cyanine dye (%), 150-hour after” value is listed as 27%. Moreover, the λmax in data set [6] is 1,064 nm. Also, in data set [7], the “molar absorption coefficient (ε)” value was 109,000.
On to `CCCCN(CCCC)c1ccc([N+](=C2C=CC(=[N+](c3ccc(N(CCCC)CCCC)cc3)c3ccc(N(CCCC)CCCC)cc3)C=C2)c2ccc(N(CCCC)CCCC)cc2)cc1.[F][Sb-]([F])([F])([F])([F])[F].[F][Sb-]([F])([F])([F])([F])[F]` [Compound No. 153, hexafluoroantimonate of N,N,N′,N′-tetrakis[p-di(n-butyl)aminophenyl]phenylenediimmonium, reference compound], for which, in data set [1], the “remaining ratio of diimmonium compound (%), 100-hour after” value was 81%; the “remaining ratio of diimmonium compound (%), 150-hour after” value turned out to be 76%; the “remaining ratio of diimmonium compound (%), initial period” value came out at 100%. Also, in data set [4], the “solubility in MEK” value was determined as 4.5% and the solubility in toluene result is reported as “insoluble”. In data set [5], the “remaining ratio of cyanine dye (%), initial period” value was determined as 100%; the “remaining ratio of cyanine dye (%), 100-hour after” value is 27%; the “remaining ratio of cyanine dye (%), 150-hour after” value was 0%. For the same molecule, the “b* value, initial period” value in data set [8] (setting [9]) was 2.5. Also, in data set [8] (acrylic resin filter, oven at 80° C., head prints 14-day, text 21 days), the “b* value, 14-day after” value is reported as 4.4. In addition, the “b* value, difference” value in data set [8] (after minus initial, oven at 80° C.) came out at 1.9.
